Results: patent US20120122727A1, “IN VITRO METHOD FOR PREDICTING WHETHER A COMPOUND IS GENOTOXIC IN VIVO” (priority 2009, published 2012)
Read-outs that look alike come from different tables or passages of the source.

Tested on: primary mouse hepatocytes
Test: Gene expression in primary mouse hepatocytes, GTX vs non-GTX (four-gene classifier, 24 h)
Experimental: Hepatocyte cells were incubated and exposed to a compound for 24 h before being harvested for RNA isolation.
The results of the gene expression analysis may then be fed into a statistical software package such as R, Splus, or Microsoft Excel. […] If none or only one of these criteria were met, no point was scored.
For each of the four genes mentioned in the table (1700007K13RIK, GAS2L3, SPC25, DDIT4L), a statistical comparison was made between the normalized expression data for these genes. […] If none or only one of these criteria were met, no point was scored.
For each compound, the sum of the scores for four genes is taken. If this score is 0, a compound can be believed not to be genotoxic. If this score is 1, 2, 3 or 4, a compound is genotoxic.
If none or only one of these criteria were met, no point was scored.

[1] = 24 h exposure, average of four replicates
[2] = log 2 ratio, 24 h exposure, concentration per Table 4
[3] = sum of scores for four genes, 0 = not genotoxic, 1, 2, 3 or 4 = genotoxic

SMILES	score 1700007K13RIK [1]	score DDIT4L [1]	score GAS2L3 [1]	score SPC25 [1]	Ratios of gene expression treated/untreated 1700007K13RIK [2]	Ratios of gene expression treated/untreated DDIT4L [2]	Ratios of gene expression treated/untreated GAS2L3 [2]	Ratios of gene expression treated/untreated SPC25 [2]	Total score [3]	Ratios of gene expression treated/untreated 1700007K13RIK	Ratios of gene expression treated/untreated DDIT4L	Ratios of gene expression treated/untreated GAS2L3	Ratios of gene expression treated/untreated SPC25	Total score	score 1700007K13RIK	score DDIT4L	score GAS2L3	score SPC25
CCCCCCCCCCCCCC(=O)O[C@@H]1[C@@H](C)[C@@]2(O)[C@@H](C=C(CO)C[C@]3(O)C(=O)C(C)=C[C@@H]23)[C@@H]2C(C)(C)[C@]12OC(C)=O [TPA, Tetradecanoylphorbol Acetate]	0	0	0	0	−0.0617	0.05594	0.01747	0.03809	0	–	–	–	–	–	–	–	–	–
OC[C@@H](O)[C@@H](O)[C@H](O)[C@H](O)CO [dMan, D-Mannitol]	0	0	0	0	0.02382	0.03421	−0.2175	−0.0363	0	–	–	–	–	–	–	–	–	–
COc1ccc(C)cc1N [pCres, Para-Cresidine]	–	–	–	–	–	–	–	–	–	0.2086	1.066	1.562	1.331	3	0	1	1	1
ClC(Cl)(Cl)Cl [CCI4, Carbon tetrachloride]	0	0	0	0	0.3906	0.4894	−0.3188	0.3544	0	–	–	–	–	–	–	–	–	–
CC(C)(c1ccc(O)cc1)c1ccc(O)cc1 [BPA, Bisphenol A]	0	0	0	0	−0.0382	0.0293	−0.06	−0.0457	0	–	–	–	–	–	–	–	–	–
